Experimental data: patent US7517874B2 (priority 2007, dated 2009)
Read-outs that look alike come from different tables or passages of the source.

Columns and labels:
[1] = target: human CB1 receptor (hCB1) (Homo sapiens, UniProt P21554); assay: cell-based; format: cell-based; conditions: for +/− HCB1: agonist or inverse agonist at hCB1
Outline: (§1)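 Agonism or inverse agonism was assessed as change in intracellular cAMP in CHO-K1 cells expressing human CB1 or rat CB2 (genomic DNA, pcDNA3.1).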

rat CB2 receptor (rCB2) = target: T1, rat CB2 receptor (rCB2) (Rattus norvegicus, UniProt Q9QZN9); assay: cell-based; format: cell-based; conditions: for +/− RCB2: agonist or inverse agonist at rCB2
T1 sequence (Q9QZN9 1-360): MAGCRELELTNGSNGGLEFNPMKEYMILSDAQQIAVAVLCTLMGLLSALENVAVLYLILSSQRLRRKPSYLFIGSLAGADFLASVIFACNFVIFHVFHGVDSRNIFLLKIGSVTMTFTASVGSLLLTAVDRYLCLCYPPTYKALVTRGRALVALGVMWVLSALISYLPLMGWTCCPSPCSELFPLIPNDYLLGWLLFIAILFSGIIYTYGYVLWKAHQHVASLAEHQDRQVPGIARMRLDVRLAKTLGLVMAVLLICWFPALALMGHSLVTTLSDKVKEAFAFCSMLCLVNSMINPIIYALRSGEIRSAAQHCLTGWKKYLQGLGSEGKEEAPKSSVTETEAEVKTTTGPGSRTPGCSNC
Outline: as §1

[2] = groups >100 nM-10 μM and >10 μM, cAMP, CHO-K1 hCB1, read-out: EC50 HCB1

human CB1 receptor (hCB1), sequence (P21554 whole entry): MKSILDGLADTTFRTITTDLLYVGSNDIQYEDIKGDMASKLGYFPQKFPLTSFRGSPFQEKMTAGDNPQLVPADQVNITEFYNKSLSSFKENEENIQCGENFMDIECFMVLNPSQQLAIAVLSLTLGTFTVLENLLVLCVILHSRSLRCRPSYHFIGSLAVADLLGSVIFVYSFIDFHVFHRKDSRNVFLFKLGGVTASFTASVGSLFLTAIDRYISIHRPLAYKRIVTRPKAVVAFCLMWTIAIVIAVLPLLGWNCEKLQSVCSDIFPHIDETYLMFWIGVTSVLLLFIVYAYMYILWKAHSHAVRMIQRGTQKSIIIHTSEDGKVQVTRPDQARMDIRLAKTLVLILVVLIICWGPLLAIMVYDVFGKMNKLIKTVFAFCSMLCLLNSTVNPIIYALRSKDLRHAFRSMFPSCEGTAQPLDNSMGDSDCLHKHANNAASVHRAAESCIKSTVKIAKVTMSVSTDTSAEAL

SMILES	EC50 [1]	+/− RCB2 (rat CB2 receptor (rCB2))	+/− HCB1 [1]	EC50 (rat CB2 receptor (rCB2))	EC50 [1, 2]
CNC(=O)[C@@H](NC(=O)c1nc(C2CCCCO2)n2c1CN(C)CCC2)C(C)(C)C (stereo partly drawn) [Compound 504, N-((S)-3,3-dimethyl-1-(methylamino)-1-oxobutan-2-yl)-8-methyl-3-(tetrahydro-2H-pyran-2-yl)-6,7,8,9-tetrahydro-5H-imidazo[1,5-a][1,4]diazepine-1-carboxamide]	> 10000 nM	+			
CNC(=O)[C@@H](NC(=O)c1nc(C(C)C(F)(F)F)n2c1CN(C)CCC2)C(C)(C)C (stereo partly drawn) [Compound 505, N-((S)-3,3-dimethyl-1-(methylamino)-1-oxobutan-2-yl)-8-methyl-3-(1,1,1-trifluoropropan-2-yl)-6,7,8,9-tetrahydro-5H-imidazo[1,5-a][1,4]diazepine-1-carboxamide]		+	+		
CNC(=O)[C@@H](NC(=O)c1nc(C(C)c2ccccc2)n2c1CN(C)CCC2)C(C)(C)C (stereo partly drawn) [Compound 506, N-((S)-3,3-dimethyl-1-(methylamino)-1-oxobutan-2-yl)-8-methyl-3-(1-phenylethyl)-6,7,8,9-tetrahydro-5H-imidazo[1,5-a][1,4]diazepine-1-carboxamide]		+	+		
CNC(=O)[C@@H](NC(=O)c1nc(C(C)C(C)C)n2c1CN(C)CCC2)C(C)(C)C (stereo partly drawn) [Compound 507, N-((S)-3,3-dimethyl-1-(methylamino)-1-oxobutan-2-yl)-8-methyl-3-(3-methylbutan-2-yl)-6,7,8,9-tetrahydro-5H-imidazo[1,5-a][1,4]diazepine-1-carboxamide]		+	+		
CNC(=O)[C@@H](NC(=O)c1nc(CCCCO)n2c1CN(C)CCC2)C(C)(C)C [Compound 508, (S)-N-(3,3-dimethyl-1-(methylamino)-1-oxobutan-2-yl)-3-(4-hydroxybutyl)-8-methyl-6,7,8,9-tetrahydro-5H-imidazo[1,5-a][1,4]diazepine-1-carboxamide]			+	> 10 µM	
CNC(=O)[C@@H](NC(=O)c1nc(/C=C/CN2CCOCC2)n2c1CN(C)CCC2)C(C)(C)C [Compound 509, (S,E)-N-(3,3-dimethyl-1-(methylamino)-1-oxobutan-2-yl)-8-methyl-3-(3-morpholinoprop-1-enyl)-6,7,8,9-tetrahydro-5H-imidazo[1,5-a][1,4]diazepine-1-carboxamide]	> 10000 nM			> 10 µM	
CNC(=O)[C@@H](NC(=O)c1nc(/C=C/CN2CCCCC2)n2c1CN(C)CCC2)C(C)(C)C [Compound 510, (S,E)-N-(3,3-dimethyl-1-(methylamino)-1-oxobutan-2-yl)-8-methyl-3-(3-(piperidin-1-yl)prop-1-enyl)-6,7,8,9-tetrahydro-5H-imidazo[1,5-a][1,4]diazepine-1-carboxamide]	> 10000 nM	+			
CNC(=O)[C@@H](NC(=O)c1nc(/C=C/CN2CCCC2)n2c1CN(C)CCC2)C(C)(C)C [Compound 511, (S,E)-N-(3,3-dimethyl-1-(methylamino)-1-oxobutan-2-yl)-8-methyl-3-(3-(pyrrolidin-1-yl)prop-1-enyl)-6,7,8,9-tetrahydro-5H-imidazo[1,5-a][1,4]diazepine-1-carboxamide]	> 10000 nM	+			
CCN(CC)C/C=C/c1nc(C(=O)N[C@H](C(=O)NC)C(C)(C)C)c2n1CCCN(C)C2 [Compound 512, (S,E)-3-(3-(diethylamino)prop-1-enyl)-N-(3,3-dimethyl-1-(methylamino)-1-oxobutan-2-yl)-8-methyl-6,7,8,9-tetrahydro-5H-imidazo[1,5-a][1,4]diazepine-1-carboxamide]	> 10000 nM			> 10 µM	
CNC(=O)[C@@H](NC(=O)c1nc(/C=C/CN(C)C)n2c1CN(C)CCC2)C(C)(C)C [Compound 513, (S,E)-N-(3,3-dimethyl-1-(methylamino)-1-oxobutan-2-yl)-3-(3-(dimethylamino)prop-1-enyl)-8-methyl-6,7,8,9-tetrahydro-5H-imidazo[1,5-a][1,4]diazepine-1-carboxamide]	> 10000 nM	−			
CNC(=O)[C@@H](NC(=O)c1nc(/C=C/CCO)n2c1CN(C)CCC2)C(C)(C)C [Compound 514, (S,E)-N-(3,3-dimethyl-1-(methylamino)-1-oxobutan-2-yl)-3-(4-hydroxybut-1-enyl)-8-methyl-6,7,8,9-tetrahydro-5H-imidazo[1,5-a][1,4]diazepine-1-carboxamide]		+	+		
CC(C)(C)OC(=O)N1CCCn2c(-c3ccccc3)nc(C(=O)N[C@H](C(=O)O)C(C)(C)C)c2C1 [Compound 515, (S)-2-(8-(tert-butoxycarbonyl)-3-phenyl-6,7,8,9-tetrahydro-5H-imidazo[1,5-a][1,4]diazepine-1-carboxamido)-3,3-dimethylbutanoic acid]		−			> 10000 nM
Cc1ccc(-c2nc(C(=O)N[C@H](C(=O)O)C(C)(C)C)c3n2CCCN(C(=O)OC(C)(C)C)C3)c(F)c1 [Compound 516, (S)-2-(8-(tert-butoxycarbonyl)-3-(2-fluoro-4-methylphenyl)-6,7,8,9-tetrahydro-5H-imidazo[1,5-a][1,4]diazepine-1-carboxamido)-3,3-dimethylbutanoic acid]	> 10000 nM	−			
Cc1noc([C@@H](NC(=O)c2nc(-c3ccccc3)n3c2CN(C(=O)OC(C)(C)C)CCC3)C(C)(C)C)n1 [Compound 517, (S)-tert-butyl 1-(2,2-dimethyl-1-(3-methyl-1,2,4-oxadiazol-5-yl)propylcarbamoyl)-3-phenyl-6,7-dihydro-5H-imidazo[1,5-a][1,4]diazepine-8(9H)-carboxylate]		−			> 10000 nM
Cc1ccc(-c2nc(C(=O)N[C@H](c3nc(C)no3)C(C)(C)C)c3n2CCCN(C(=O)OC(C)(C)C)C3)c(F)c1 [Compound 518, (S)-tert-butyl 1-(2,2-dimethyl-1-(3-methyl-1,2,4-oxadiazol-5-yl)propylcarbamoyl)-3-(2-fluoro-4-methylphenyl)-6,7-dihydro-5H-imidazo[1,5-a][1,4]diazepine-8(9H)-carboxylate]	> 10000 nM	−			
Cc1noc([C@@H](NC(=O)c2nc(-c3ccccc3)n3c2CNCCC3)C(C)(C)C)n1 [Compound 519, (S)-N-(2,2-dimethyl-1-(3-methyl-1,2,4-oxadiazol-5-yl)propyl)-3-phenyl-6,7,8,9-tetrahydro-5H-imidazo[1,5-a][1,4]diazepine-1-carboxamide]	> 10000 nM	+			
Cc1ccc(-c2nc(C(=O)N[C@H](c3nc(C)no3)C(C)(C)C)c3n2CCCNC3)c(F)c1 [Compound 520, (S)-N-(2,2-dimethyl-1-(3-methyl-1,2,4-oxadiazol-5-yl)propyl)-3-(2-fluoro-4-methylphenyl)-6,7,8,9-tetrahydro-5H-imidazo[1,5-a][1,4]diazepine-1-carboxamide]	> 10000 nM	−			
Cc1noc([C@@H](NC(=O)c2nc(-c3ccccc3)n3c2CN(C)CCC3)C(C)(C)C)n1 [Compound 521, (S)-N-(2,2-dimethyl-1-(3-methyl-1,2,4-oxadiazol-5-yl)propyl)-8-methyl-3-phenyl-6,7,8,9-tetrahydro-5H-imidazo[1,5-a][1,4]diazepine-1-carboxamide]	> 10000 nM	+			
Cc1ccc(-c2nc(C(=O)N[C@H](c3nc(C)no3)C(C)(C)C)c3n2CCCN(C)C3)c(F)c1 [Compound 522, (S)-N-(2,2-dimethyl-1-(3-methyl-1,2,4-oxadiazol-5-yl)propyl)-3-(2-fluoro-4-methylphenyl)-8-methyl-6,7,8,9-tetrahydro-5H-imidazo[1,5-a][1,4]diazepine-1-carboxamide]	> 10000 nM	−			
Cc1ccc(-c2nc(C(=O)N[C@H](c3nc(C)no3)C(C)(C)C)c3n2CCCN(C(C)C)C3)c(F)c1 [Compound 523, (S)-N-(2,2-dimethyl-1-(3-methyl-1,2,4-oxadiazol-5-yl)propyl)-3-(2-fluoro-4-methylphenyl)-8-isopropyl-6,7,8,9-tetrahydro-5H-imidazo[1,5-a][1,4]diazepine-1-carboxamide]	> 10000 nM	−			
CCN1CCCn2c(-c3ccccc3)nc(C(=O)N[C@H](c3nc(C)no3)C(C)(C)C)c2C1 [Compound 524, (S)-N-(2,2-dimethyl-1-(3-methyl-1,2,4-oxadiazol-5-yl)propyl)-8-ethyl-3-phenyl-6,7,8,9-tetrahydro-5H-imidazo[1,5-a][1,4]diazepine-1-carboxamide]	> 10000 nM	−			
Cc1noc([C@@H](NC(=O)c2nc(-c3ccccc3)n3c2CN(C(C)C)CCC3)C(C)(C)C)n1 [Compound 525, (S)-N-(2,2-dimethyl-1-(3-methyl-1,2,4-oxadiazol-5-yl)propyl)-8-isopropyl-3-phenyl-6,7,8,9-tetrahydro-5H-imidazo[1,5-a][1,4]diazepine-1-carboxamide]	> 10000 nM	−			
CNC(=O)[C@@H](NC(=O)c1nc(-c2ccc(Cl)cc2F)n2c1CN(C1CCN(C(C)=O)CC1)CCC2)C(C)(C)C [Compound 527, (S)-8-(1-acetylpiperidin-4-yl)-3-(4-chloro-2-fluorophenyl)-N-(3 3-dimethyl-1-(methylamino)-1-oxobutan-2-yl)-6,7,8,9-tetrahydro-5H-imidazo[1,5-a][1,4]diazepine-1-carboxamide]	> 10000 nM	−			
